From US8293729B2 (Boehringer Ingelheim International GmbH, priority 2009, dated 2012)

These molecules were tested against T1, human GPR119 receptor (Homo sapiens, UniProt Q8TDV5, S329A/T327A) (assay: cAMP assay (LANCE cAMP-384) in HEK293 cells stably expressing mutant human GPR119 receptor). Details: HEK293, 20 min; at 10 μM; printed in EC50 column of the 36th table; read-out: stimulation in % at 10 μM.
T1 construct: N-terminal leader […]; expressed in transfected cells
T1 sequence (Q8TDV5 with tags, fused parts or gaps T327A/S329A): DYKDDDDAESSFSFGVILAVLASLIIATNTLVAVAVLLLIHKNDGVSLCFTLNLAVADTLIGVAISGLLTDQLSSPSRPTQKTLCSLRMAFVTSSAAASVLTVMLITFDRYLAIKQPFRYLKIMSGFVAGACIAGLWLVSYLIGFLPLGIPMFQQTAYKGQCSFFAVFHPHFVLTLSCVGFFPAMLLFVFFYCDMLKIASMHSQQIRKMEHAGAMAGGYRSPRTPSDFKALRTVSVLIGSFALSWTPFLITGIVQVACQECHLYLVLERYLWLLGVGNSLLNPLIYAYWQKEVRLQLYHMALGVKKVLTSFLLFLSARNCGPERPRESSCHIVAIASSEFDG
Assay type: cell-based
How it was run: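 HEK293 cells stably expressing human GPR119 (T327A/S329A, modified N-terminus), 1000 cells/well, exposed to compound for 20 min at 37° C. cAMP quantified by LANCE TR-FRET against a standard curve; EC50 from 12 points, 30 μM to 100 pM, or % stimulation at 10 μM.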

Structure (SMILES) | activation at 10 µM [%]
CS(=O)(=O)c1ccc(N2CCC(=NOC3CCN(Cc4cccnc4Cl)CC3)CC2)c(F)c1 [Example 66-51] | 66
CS(=O)(=O)c1ccc(N2CCC(=NOC3CCN(Cc4nccs4)CC3)CC2)c(F)c1 [Example 66-6] | 63

Same assay, conditions: cAMP accumulation, HEK293 cells stably expressing mutant human GPR119; read-out: EC50

Structure (SMILES) | EC50 [µM]
CC(C)OC(=O)N1CCC(ON=C2CCN(c3ccc(I)cn3)CC2)CC1 [Example 2-12] | 2.36
CC(C)OC(=O)N1CCC(ON=C2CCN(c3ncnc4ccsc34)CC2)CC1 [Example 2-15] | 4.79
CC(C)OC(=O)N1CCC(ON=C2CCN(c3cc(F)c(CN4CCN(C)C4=O)cc3F)CC2)CC1 [Example 15-2] | 0.282
CC(C)OC(=O)N1CCC(ON=C2CCN(c3ccc(CO)c(Cl)n3)CC2)CC1 [Example 2-26] | 0.758
CC(C)OC(=O)N1CCC(ON=C2CCN(c3cc(F)c(-c4cccs4)cc3F)CC2)CC1 [Example 27-1, 4-[1-(2,5-Difluoro-4-thiophen-2-yl-phenyl)-piperidin-4-ylideneaminooxy]-piperidine-1-carboxylic acid isopropyl ester] | 0.201
CC(C)OC(=O)N1CCC(ON=C2CCN(c3ncc(Cl)c(Cl)n3)CC2)CC1 [Example 2-50] | > 10
COCCN(C)Cc1cc(F)c(N2CCC(=NOC3CCN(C(=O)OC(C)C)CC3)CC2)cc1F [Example 5-5] | > 10
CC(C)OC(=O)N1CCC(ON=C2CCN(c3ccc(C=O)c(F)c3)CC2)CC1 [Example 2-20] | 0.703
CC(C)OC(=O)N1CCC(ON=C2CCN(c3nccnc3Cl)CC2)CC1 [Example 2-10] | 0.363
Cc1ccc(-c2cc(F)c(N3CCC(=NOC4CCN(C(=O)OC(C)C)CC4)CC3)cc2F)s1 [Example 27-23] | 0.274
CC(C)OC(=O)N1CCC(ON=C2CCN(c3cc(F)c(NC(=N)N)cc3F)CC2)CC1 [Example 36-1, 4-[1-(2,5-Difluoro-4-guanidino-phenyl)-piperidin-4-ylideneaminooxy]-piperidine-1-carboxylic acid isopropyl ester] | 1.32
CC(C)OC(=O)N1CCC(ON=C2CCN(c3cc(F)c(-c4ccsc4)cc3F)CC2)CC1 [Example 27-12] | 0.245
CC(C)OC(=O)N1CCC(ON=C2CCN(c3ccc(S(C)(=O)=O)cc3F)CC2)CC1 [Example 2-1, 4-[1-(2-Fluoro-4-methanesulfonyl-phenyl)-piperidin-4-ylideneaminooxy]-piperidine-1-carboxylic acid isopropyl ester] | 0.047
CC(C)OC(=O)N1CCC(ON=C2CCN(c3ccc4c(c3)CCC4=O)CC2)CC1 [Example 2-38] | > 10
CC(C)OC(=O)N1CCC(ON=C2CCN(c3ccnc(Cl)n3)CC2)CC1 [Example 2-46] | 1.88
CC(C)OC(=O)N1CCC(ON=C2CCN(c3cc(F)c(-n4cncn4)cc3F)CC2)CC1 [Example 22-4] | 0.033
CCOC(=O)NCc1cc(F)c(N2CCC(=NOC3CCN(C(=O)OC(C)C)CC3)CC2)cc1F [Example 16-4] | 0.07
CC(C)OC(=O)N1CCC(ON=C2CCN(c3cnccn3)CC2)CC1 [Example 2-11] | > 10
COCc1cc(F)c(N2CCC(=NOC3CCN(C(=O)OC(C)C)CC3)CC2)cc1F [Example 49-1, 4-[1-(2,5-Difluoro-4-methoxymethyl-phenyl)-piperidin-4-ylideneaminooxy]-piperidine-1-carboxylic acid isopropyl ester] | 0.265
CC(C)OC(=O)N1CCC(ON=C2CCN(c3cc4[nH]cnc(=O)c4cc3F)CC2)CC1 [Example 2-61] | > 10
CC(C)OC(=O)N1CCC(ON=C2CCN(c3cc(F)c(S(=O)(=O)C4CC4)cc3F)CC2)CC1 [Example 47-1, 4-[1-(4-Cyclopropanesulfonyl-2,5-difluoro-phenyl)-piperidin-4-ylideneaminooxy]-piperidine-1-carboxylic acid isopropyl ester] | 0.043
CSc1nc(N2CCC(=NOC3CCN(C(=O)OC(C)C)CC3)CC2)ncc1Br [Example 2-55] | > 10
CC(C)OC(=O)N1CCC(ON=C2CCN(c3cc(F)c(CN(C)CCO)cc3F)CC2)CC1 [Example 5-3] | > 10
CC(C)OC(=O)N1CCC(ON=C2CCN(c3cc(F)c(CS(=O)(=O)C4CC4)cc3F)CC2)CC1 [Example 14-3] | 0.019
CC(C)OC(=O)N1CCC(ON=C2CCN(c3cc(F)c(CN4CCCC4=O)cc3F)CC2)CC1 [Example 6-1, 4-{1-[2,5-Difluoro-4-(2-oxo-pyrrolidin-1-ylmethyl)-phenyl]-piperidin-4-ylideneaminooxy}-piperidine-1-carboxylic acid isopropyl ester] | 0.04

Same assay, conditions: the 15th table; read-out: EC50

Structure (SMILES) | EC50 [µM]
CC(C)OC(=O)N1CCC(ON=C2CCN(c3cc(F)c(C(=O)NCCN)cc3F)CC2)CC1 [Example 29-6] | 0.381
CC(CO)NC(=O)c1cc(F)c(N2CCC(=NOC3CCN(C(=O)OC(C)C)CC3)CC2)cc1F (stereo not drawn) [Example 29-8] | 0.081
CC(C)OC(=O)N1CCC(ON=C2CCN(c3cc(F)c(C(=O)NCCCO)cc3F)CC2)CC1 [Example 29-9] | 0.094
CC(C)OC(=O)N1CCC(ON=C2CCN(c3cc(F)c(C(=O)NCCO)cc3F)CC2)CC1 [Example 29-11] | 0.084

Same assay, conditions: the 19th table; unit inferred; read-out: EC 50

Structure (SMILES) | EC50 [µM]
CCc1cnc(N2CCC(ON=C3CCN(c4cc(F)c(C(=O)N5CCC(CN)CC5)cc4F)CC3)CC2)nc1 [Example 29-125] | 0.168
CCc1cnc(N2CCC(ON=C3CCN(c4cc(F)c(C(=O)NCC[C@H](N)C(=O)O)cc4F)CC3)CC2)nc1 [Example 29-117] | 0.745
CCc1cnc(N2CCC(ON=C3CCN(c4cc(F)c(C(=O)N5CCCC(CNC)C5)cc4F)CC3)CC2)nc1 (stereo not drawn) [Example 29-129] | 0.05
CCc1cnc(N2CCC(ON=C3CCN(c4cc(F)c(C(=O)N5CCCNCC5)cc4F)CC3)CC2)nc1 [Example 29-114] | 0.392
CCc1cnc(N2CCC(ON=C3CCN(c4cc(F)c(C(=O)N5CCC[C@@H](N)C5)cc4F)CC3)CC2)nc1 [Example 29-88] | 0.221
CCc1cnc(N2CCC(ON=C3CCN(c4cc(F)c(C(=O)NCC5CCNC5)cc4F)CC3)CC2)nc1 (stereo not drawn) [Example 29-90] | 0.067

Same assay, conditions: the 30th table; read-out: EC50

Structure (SMILES) | EC50 [µM]
CC(C)OC(=O)N1CCC(ON=C2CCN(c3ncc(Cn4ccnn4)cc3F)CC2)CC1 [Example 54-2] | 1.06

Same assay, conditions: the 32nd table; read-out: EC50

Structure (SMILES) | EC50 [µM]
Cc1ccnc(N2CCC(ON=C3CCN(c4ccc(S(C)(=O)=O)cc4F)CC3)CC2)n1 [Example 63-16] | 0.765
CS(=O)(=O)c1ccc(N2CCC(=NOC3CCN(c4ccc(C#N)cn4)CC3)CC2)c(F)c1 [Example 63-23] | 1.3

Same assay, conditions: the 33rd table; read-out: EC50

Structure (SMILES) | EC50 [µM]
CC(N)COC(=O)N1CCC(ON=C2CCN(c3ccc(S(C)(=O)=O)cc3F)CC2)CC1 (stereo not drawn) [Example 64-35] | > 10
CCOCCOC(=O)N1CCC(ON=C2CCN(c3ccc(S(C)(=O)=O)cc3F)CC2)CC1 [Example 64-10] | 1.28
CC(OC(=O)N1CCC(ON=C2CCN(c3ccc(S(C)(=O)=O)cc3F)CC2)CC1)C1CC1 (stereo not drawn) [Example 64-5] | 0.09
CC(C)(C)CCOC(=O)N1CCC(ON=C2CCN(c3ccc(S(C)(=O)=O)cc3F)CC2)CC1 [Example 64-41] | 0.202
CN1CCCC1CCOC(=O)N1CCC(ON=C2CCN(c3ccc(S(C)(=O)=O)cc3F)CC2)CC1 (stereo not drawn) [Example 64-27] | > 10

Same assay, conditions: the 34th table, compounds 65-1 to 65-24; read-out: EC50

Structure (SMILES) | EC50 [µM]
CS(=O)(=O)c1ccc(N2CCC(=NOC3CCN(CC(=O)Oc4ccccc4)CC3)CC2)c(F)c1 [Example 65-6] | 0.854

Same assay, conditions: the 36th table, compounds 66-1 to 66-51; read-out: EC50

Structure (SMILES) | EC50 [µM]
CS(=O)(=O)c1ccc(N2CCC(=NOC3CCN(Cc4ccccn4)CC3)CC2)c(F)c1 [Example 66-3] | > 10
CS(=O)(=O)c1ccc(N2CCC(=NOC3CCN(Cc4ncco4)CC3)CC2)c(F)c1 [Example 66-20] | > 10
CS(=O)(=O)c1ccc(N2CCC(=NOC3CCN(Cc4ccccc4C#N)CC3)CC2)c(F)c1 [Example 66-19] | > 10
CS(=O)(=O)c1ccc(N2CCC(=NOC3CCN(Cc4ccccc4F)CC3)CC2)c(F)c1 [Example 66-16] | 0.56

Same assay, conditions: the 39th table, compounds 67-1 to 67-3; read-out: EC50

Structure (SMILES) | EC50 [µM]
Cc1ccc(N2CCC(ON=C3CCN(c4ccc(S(C)(=O)=O)cc4F)CC3)CC2)cn1 [Example 67-3] | 0.745
CCc1ccc(N2CCC(ON=C3CCN(c4ccc(S(C)(=O)=O)cc4F)CC3)CC2)nc1 [Example 67-2] | 0.558

Same assay, conditions: the 41st table, compounds 73-1, 73-2; unit inferred; read-out: EC50

Structure (SMILES) | EC50 [µM]
CS(=O)(=O)c1ccc(N2CCC(=NOC3CCN(C(=O)N4CCCCC4)CC3)CC2)c(F)c1 [Example 73-1, 1-(2-FLUORO-4-METHANESULFONYL-PHENYL)-PIPERIDIN-4-ONE O-[1-(PIPERIDINE-1-CARBONYL)-PIPERIDIN-4-YL]-OXIME] | 0.425

Same assay, conditions: the 43rd table, compounds 75-1 to 75-38; read-out: EC50

Structure (SMILES) | EC50 [µM]
CC(C)OC(=O)N1CCC(ON=C2CCN(c3cc(F)c(CC(=O)N4CCC[C@H](N)C4)cc3F)CC2)CC1 [Example 75-13] | 0.116
CC(C)OC(=O)N1CCC(ON=C2CCN(c3cc(F)c(CC(=O)N4CCC[C@@H](N)C4)cc3F)CC2)CC1 [Example 75-14] | 0.051
CC(C)OC(=O)N1CCC(ON=C2CCN(c3cc(F)c(CC(=O)NCC4CCN(C)C4)cc3F)CC2)CC1 (stereo not drawn) [Example 75-33] | 0.128

Same assay, conditions: the 44th table, compounds 77-1 to 77-14; read-out: EC50

Structure (SMILES) | EC50 [µM]
CCc1cnc(N2CCC(ON=C3CCN(c4cc(F)c(CC(=O)N5CC[C@H](CN)C5)cc4F)CC3)CC2)nc1 [Example 77-9] | 0.008
